Experimental data from patent US10239882B2, “Substituted 5-methyl-[1,2,4]triazolo[1,5-a]pyrimidin-2-amine compounds as PDE2 inhibitors” (DART NEUROSCIENCE (CAYMAN) LTD., priority 2014, dated 2019).

Biological target: FLAG-tagged PDE2A1 (amino acids 2-941) (Homo sapiens (Human), UniProt O00408)
Assay: IMAP TR-FRET PDE2A enzymatic assay
Type: biochemical
Conditions: 200 nM FAM-cAMP substrate, 11-point half-log dose-response; for IC50: read-out: PDE2 (PIC50)
Text: An IMAP TR-FRET-based phosphodiesterase assay was developed using the PDE2A isoform. IMAP technology is based on high-affinity binding of phosphate by immobilized metal (MIII) coordination complexes on nanoparticles. The IMAP “binding reagent” recognizes phosphate groups on AMP or GMP generated from cAMP or cGMP in a PDE reaction. Cyclic nucleotides that carry a phosphodiester bond and not a free phosphate are not recognized by the binding reagent. The time resolved fluorescence resonance energy transfer (TR-FRET) is afforded by a Terbium (Tb)-Donor pre-bound to the nanoparticles. FRET occurs when the fluorescent-labeled AMP or GMP product of a PDE reaction binds and comes into close proximity to the Tb-Donor complex. Due to the long lifetime of Tb fluorescence, detection can be run in time-resolved mode to reduce or eliminate interference from auto-fluorescent compounds.
The IMAP TR-FRET PDE2A assay was performed in 1536-well white plates. A total of 250 pg per well of FLAG-tagged PDE2A1 (amino acids 2-941) was dispensed in 2.5 μL IMAP assay buffer consisting of 10 mM Tris pH 7.2, 10 mM MgCl2, 1 mM DTT, and 0.1% fatty acid free BSA. 30 nL of compound was then added from 1 mM stocks in DMSO using a Kalypsys Pintool. Plates were incubated for 5 min at room temperature before dispensing 1.5 μL of 533 nM FAM-cAMP substrate for a final concentration of 200 nM. Following a brief centrifugation, plates were incubated for 30 min at room temperature. The assay was terminated by adding 5 μL IMAP binding reagent Tb complex to each well which was prepared according to manufacturer's recommendations (Molecular Devices). Plates were incubated an additional 90 minutes at room temperature and read on a Viewlux plate reader. All compounds were solvated at a concentration of 10 mM in DMSO and tested in 11-point half-log dose-response. Curve fitting and IC50 values were determined using a standard four parameter fit.

Chain of FLAG-tagged PDE2A1 (amino acids 2-941) (O00408 2-941): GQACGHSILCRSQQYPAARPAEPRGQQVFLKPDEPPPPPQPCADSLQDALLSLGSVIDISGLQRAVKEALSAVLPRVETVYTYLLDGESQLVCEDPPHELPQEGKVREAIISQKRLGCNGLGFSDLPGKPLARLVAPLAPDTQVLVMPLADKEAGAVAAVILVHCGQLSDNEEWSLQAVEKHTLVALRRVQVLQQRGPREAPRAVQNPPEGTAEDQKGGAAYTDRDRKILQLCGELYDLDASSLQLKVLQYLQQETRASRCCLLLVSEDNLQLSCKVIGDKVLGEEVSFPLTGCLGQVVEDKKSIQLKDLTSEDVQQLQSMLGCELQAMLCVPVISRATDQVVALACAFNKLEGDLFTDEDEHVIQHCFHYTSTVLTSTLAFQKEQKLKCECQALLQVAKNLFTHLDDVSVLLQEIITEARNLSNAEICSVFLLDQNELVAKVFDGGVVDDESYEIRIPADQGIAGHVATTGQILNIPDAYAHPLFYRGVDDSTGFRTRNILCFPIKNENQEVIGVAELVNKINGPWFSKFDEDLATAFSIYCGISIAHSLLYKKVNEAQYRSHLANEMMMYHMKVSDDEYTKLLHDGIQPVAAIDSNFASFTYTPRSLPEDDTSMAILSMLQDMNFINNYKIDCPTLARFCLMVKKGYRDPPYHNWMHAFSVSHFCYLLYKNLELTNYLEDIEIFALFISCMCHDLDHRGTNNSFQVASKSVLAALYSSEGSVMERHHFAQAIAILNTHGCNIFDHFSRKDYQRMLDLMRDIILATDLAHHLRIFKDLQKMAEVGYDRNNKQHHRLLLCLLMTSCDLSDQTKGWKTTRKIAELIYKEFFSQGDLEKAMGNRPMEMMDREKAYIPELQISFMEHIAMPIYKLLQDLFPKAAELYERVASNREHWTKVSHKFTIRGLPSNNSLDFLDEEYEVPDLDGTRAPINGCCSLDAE

Compound | IC50 [nM] | PDE2 (PIC50)
Cc1cc(CNc2nc3nc(C)cc(C4CCOCC4)n3n2)ccn1 [Example 35, 5-Methyl-N-[(2-methylpyridin-4-yl)methyl]-7-(oxan-4-yl)-[1,2,4]triazolo[1,5-a]pyrimidin-2-amine] | 100 to 1000 | 
Cc1cc(C2CCOCC2)n2nc(NCc3cnn(-c4ccccc4C)c3)nc2n1 [Example 36, 5-Methyl-N-{[1-(2-methylphenyl)-1H-pyrazol-4-yl]methyl}-7-(oxan-4-yl)-[1,2,4]triazolo[1,5-a]pyrimidin-2-amine] |  | >7
Cc1cc(C2CCOCC2)n2nc(NCc3cc(-c4ccccc4)no3)nc2n1 [Example 37, 5-Methyl-7-(oxan-4-yl)-N-[(3-phenyl-1,2-oxazol-5-yl)methyl]-[1,2,4]triazolo[1,5-a]pyrimidin-2-amine] |  | >7
COc1ccc(CNc2nc3nc(C)cc(C4CCCOC4)n3n2)cc1 (stereo not shown) [Example 38, N-[(4-Methoxyphenyl)methyl]-5-methyl-7-(oxan-3-yl)-[1,2,4]triazolo[1,5-a]pyrimidin-2-amine] |  | >7
Cc1cc(C2CCOCC2)n2nc(NCc3cccc(Br)c3)nc2n1 [Example 39, N-[(3-Bromophenyl)methyl]-5-methyl-7-(oxan-4-yl)-[1,2,4]triazolo[1,5-a]pyrimidin-2-amine] |  | >7
Cc1cc(C2CCOCC2)n2nc(NCc3cccc(Cl)c3)nc2n1 [Example 40, N-[(3-Chlorophenyl)methyl]-5-methyl-7-(oxan-4-yl)-[1,2,4]triazolo[1,5-a]pyrimidin-2-amine] |  | >7
Cc1cc(C2CCOCC2)n2nc(NCc3cccc(C(F)(F)F)c3)nc2n1 [Example 41, 5-Methyl-7-(oxan-4-yl)-N-{[3-(trifluoromethyl)phenyl]methyl}-[1,2,4]triazolo[1,5-a]pyrimidine-2-amine] |  | >7
Cc1cc(C2CCOCC2)n2nc(NCc3ccc4c(c3)CCO4)nc2n1 [Example 42, N-(2,3-Dihydro-1-benzofuran-5-ylmethyl)-5-methyl-7-(oxan-4-yl)-[1,2,4]triazolo[1,5-a]pyrimidin-2-amine] |  | >7
Cc1cc(CNc2nc3nc(C)cc(C4(C)CCOCC4)n3n2)ccn1 [Example 43, 5-Methyl-7-(4-methyloxan-4-yl)-N-[(2-methylpyridin-4-yl)methyl]-[1,2,4]triazolo[1,5-a]pyrimidin-2-amine] | 100 to 1000 | 
COc1ccc(CNc2nc3nc(C)cc(C4CCOC4)n3n2)cc1 (stereo not shown) [Example 44, N-[(4-Methoxyphenyl)methyl]-5-methyl-7-(oxolan-3-yl)-[1,2,4]triazolo[1,5-a]pyrimidin-2-amine] | 100 to 1000 | 
Cc1cc(C2CCOCC2)n2nc(NCc3ccc4c(c3)OC(F)(F)O4)nc2n1 [Example 45, N-[(2,2-Difluoro-2H-1,3-benzodioxol-5-yl)methyl]-5-methyl-7-(oxan-4-yl)-[1,2,4]triazolo[1,5-a]pyrimidin-2-amine] | 100 to 1000 | 
Cc1cc(C2CCOCC2)n2nc(NCc3cn(-c4ccccc4)nc3C)nc2n1 [Example 46, 5-Methyl-N-[(3-methyl-1-phenyl-1H-pyrazol-4-yl)methyl]-7-(oxan-4-yl)-[1,2,4]triazolo[1,5-a]pyrimidin-2-amine] |  | >7
Cc1cc(C2CCOCC2)n2nc(NCc3ccccc3C)nc2n1 [Example 47, 5-Methyl-N-[(2-methylphenyl)methyl]-7-(oxan-4-yl)-[1,2,4]triazolo[1,5-a]pyrimidin-2-amine] | 100 to 1000 | 
Cc1cc(C2CCOCC2)n2nc(NCc3ccccc3Cl)nc2n1 [Example 48, N-[(2-Chlorophenyl)methyl]-5-methyl-7-(oxan-4-yl)-[1,2,4]triazolo[1,5-a]pyrimidin-2-amine] | 100 to 1000 | 
Cc1cc(C2CCOCC2)n2nc(NCc3cc(F)ccc3F)nc2n1 [Example 49, N-[(2,5-Difluorophenyl)methyl]-5-methyl-7-(oxan-4-yl)-[1,2,4]triazolo[1,5-a]pyrimidin-2-amine] | 100 to 1000 | 
COc1cc(F)c(CNc2nc3nc(C)cc(C4CCOCC4)n3n2)c(F)c1 [Example 50, N-[(2,6-Difluoro-4-methoxyphenyl)methyl]-5-methyl-7-(oxan-4-yl)-[1,2,4]triazolo[1,5-a]pyrimidin-2-amine] |  | >7
Cc1cc(C2CCOCC2)n2nc(NCc3c(F)cccc3F)nc2n1 [Example 51, N-[(2,6-Difluorophenyl)methyl]-5-methyl-7-(oxan-4-yl)-[1,2,4]triazolo[1,5-a]pyrimidin-2-amine] | 100 to 1000 | 
Cc1cc(C2CCOCC2)n2nc(NCc3ccnc(C(F)F)c3)nc2n1 [Example 52, N-{[2-(Difluoromethyl)pyridin-4-yl]methyl}-5-methyl-7-(oxan-4-yl)-[1,2,4]triazolo[1,5-a]pyrimidin-2-amine] |  | >7
Cc1cc(CNc2nc3nc(C)cc(C4CCOCC4)n3n2)cc(C)n1 [Example 53, N-[(2,6-Dimethylpyridin-4-yl)methyl]-5-methyl-7-(oxan-4-yl)-[1,2,4]triazolo[1,5-a]pyrimidin-2-amine] |  | >7
Cc1cncc(CNc2nc3nc(C)cc(C4CCOCC4)n3n2)c1 [Example 54, 5-Methyl-N-[(5-methylpyridin-3-yl)methyl]-7-(oxan-4-yl)-[1,2,4]triazolo[1,5-a]pyrimidin-2-amine] |  | >7
COc1ccc(CNc2nc3nc(C)cc(C4(F)CCOCC4)n3n2)cc1 [Example 55, 7-(4-Fluorooxan-4-yl)-N-[(4-methoxyphenyl)methyl]-5-methyl-[1,2,4]triazolo[1,5-a]pyrimidin-2-amine] |  | >7
Cc1cc(C2CCOCC2)n2nc(NCc3ccc(F)c(F)c3)nc2n1 [Example 56, N-[(3,4-Difluorophenyl)methyl]-5-methyl-7-(oxan-4-yl)-[1,2,4]triazolo[1,5-a]pyrimidin-2-amine] | 100 to 1000 | 
Cc1cc(C2CCOCC2)n2nc(NCc3ccc(F)cc3)nc2n1 [Example 57, N-[(4-Fluorophenyl)methyl]-5-methyl-7-(oxan-4-yl)-[1,2,4]triazolo[1,5-a]pyrimidin-2-amine] | 100 to 1000 | 
Cc1cc(C2CCOCC2)n2nc(NCc3cccc(F)c3)nc2n1 [Example 58, N-[(3-Fluorophenyl)methyl]-5-methyl-7-(oxan-4-yl)-[1,2,4]triazolo[1,5-a]pyrimidin-2-amine] | 100 to 1000 | 
Cc1cc(C2CCOCC2)n2nc(NCc3ccnc(C(F)(F)F)c3)nc2n1 [Example 59, 5-Methyl-7-(oxan-4-yl)-N-{[2-(trifluoromethyl)pyridin-4-yl]methyl}-[1,2,4]triazolo[1,5-a]pyrimidin-2-amine] |  | >7
Cc1cc(C2CCOCC2)n2nc(NCc3ccnc4ccccc34)nc2n1 [Example 60, 5-Methyl-7-(oxan-4-yl)-N-(quinolin-4-ylmethyl)-[1,2,4]triazolo[1,5-a]pyrimidin-2-amine] |  | >7
Cc1cc(C2(C)CCOCC2)n2nc(NCc3cn(-c4ccccc4)nc3C)nc2n1 [Example 61, 5-Methyl-N-[(3-methyl-1-phenyl-1H-pyrazol-4-yl)methyl]-7-(4-methyloxan-4-yl)-[1,2,4]triazolo[1,5-a]pyrimidin-2-amine] |  | >7
Cc1cc(C2(C)CCOCC2)n2nc(NCc3cnn(-c4ccccc4)c3)nc2n1 [Example 62, 5-Methyl-7-(4-methyloxan-4-yl)-N-[(1-phenyl-1H-pyrazol-4-yl)methyl]-[1,2,4]triazolo[1,5-a]pyrimidin-2-amine] |  | >7
